# Experiments:
# soybean (Glycine max) [1] = test: Upland field foliage treatment (Test Example 1), crop; type: in vivo; conditions: foliage treatment 14th day after sowing, 1 kg active ingredient per hectare, evaluated 21st day, lower index = higher safety
# Method in brief: (§1)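 Foliar spray, 1 kg a.i./ha, wettable powder in water, applied 14 d post-sowing; seeds covered by ~1 cm upland soil. Index scoring at 21 d. Higher index = stronger weed control; for crops, lower index = greater safety.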
# [2] = test system: wheat (Triticum aestivum); test: as above; type: in vivo; conditions: foliage treatment 14th day after sowing, 1 kg active ingredient per hectare, evaluated 21st day, lower index = higher safety
# Method in brief: as §1
# Echinochloa spp. = test: Paddy field treatment (Test Example 3); type: in vivo, Echinochloa crusgalli; conditions: paddy pot, submerged 4 cm, dropped on water surface 10th day after transplantation, 1 kg active ingredient per hectare, evaluated 21st day
# Method in brief: (§2)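 Paddy soil in pots was puddled and flooded to 4 cm, weeds were sown, and two-leaf Koshihikari rice was transplanted at 3 cm depth. Ten days after transplanting, wettable powder was applied onto the water surface at 1 kg active ingredient per hectare. Herbicidal effect was index-scored 21 days later.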
# soybean (Glycine max) [3] = test: Upland soil treatment (Test Example 2), crop; type: in vivo; conditions: soil surface treatment next day after sowing, 1 kg active ingredient per hectare, evaluated 21st day, lower index = higher safety
# Method in brief: (§3)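 Upland soil in pots was sown with weed and crop seeds, covered with about 1 cm soil, and next day sprayed on the surface with wettable-powder formulation at 1 kg active ingredient per hectare. Effects were scored by index on day 21; higher index means stronger weed control, lower index means better crop safety.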
# [4] = test system: wheat (Triticum aestivum); test: Upland soil treatment (Test Example 2), crop; type: in vivo; conditions: soil surface treatment next day after sowing, 1 kg active ingredient per hectare, evaluated 21st day, lower index = higher safety
# Method in brief: as §3
# Ammannia multiflora = test: Paddy field treatment (Test Example 3); type: in vivo; conditions: paddy pot, submerged 4 cm, dropped on water surface 10th day after transplantation, 1 kg active ingredient per hectare, evaluated 21st day
# Method in brief: as §2
# Monochoria vaginalis = test: Paddy field treatment (Test Example 3); type: in vivo; conditions: paddy pot, submerged 4 cm, dropped on water surface 10th day after transplantation, 1 kg active ingredient per hectare, evaluated 21st day
# Method in brief: as §2
# Scirpus juncoides = test: Paddy field treatment (Test Example 3); type: in vivo; conditions: paddy pot, submerged 4 cm, dropped on water surface 10th day after transplantation, 1 kg active ingredient per hectare, evaluated 21st day
# Method in brief: as §2
# Stellaria media [5] = test: Upland soil treatment (Test Example 2); type: in vivo; conditions: soil surface treatment next day after sowing, wettable powder, 1 kg active ingredient per hectare, evaluated 21st day after application
# Method in brief: as §3
# Digitaria adscendens [6] = test: Upland soil treatment (Test Example 2); type: in vivo; conditions: soil surface treatment next day after sowing, wettable powder, 1 kg active ingredient per hectare, evaluated 21st day after application
# Method in brief: as §3
# Chenopodium album [7] = test: Upland soil treatment (Test Example 2); type: in vivo; conditions: soil surface treatment next day after sowing, wettable powder, 1 kg active ingredient per hectare, evaluated 21st day after application
# Method in brief: as §3
# Setaria viridis [8] = test: Upland soil treatment (Test Example 2); type: in vivo; conditions: soil surface treatment next day after sowing, wettable powder, 1 kg active ingredient per hectare, evaluated 21st day after application
# Method in brief: as §3
# Stellaria media [9] = test: Upland field foliage treatment (Test Example 1); type: in vivo; conditions: foliage treatment 14th day after sowing, wettable powder, 1 kg active ingredient per hectare, evaluated 21st day after application
# Method in brief: as §1
# Digitaria adscendens [10] = test: Upland field foliage treatment (Test Example 1); type: in vivo; conditions: foliage treatment 14th day after sowing, wettable powder, 1 kg active ingredient per hectare, evaluated 21st day after application
# Method in brief: as §1
# Chenopodium album [11] = test: Upland field foliage treatment (Test Example 1); type: in vivo; conditions: foliage treatment 14th day after sowing, wettable powder, 1 kg active ingredient per hectare, evaluated 21st day after application
# Method in brief: as §1
# Setaria viridis [12] = test: Upland field foliage treatment (Test Example 1); type: in vivo; conditions: foliage treatment 14th day after sowing, wettable powder, 1 kg active ingredient per hectare, evaluated 21st day after application
# Method in brief: as §1
# [13] = test system: rice (Oryza sative, variety: Koshihikari); test: Paddy field treatment (Test Example 3), crop; type: in vivo, Oryza sativa; conditions: transplanted rice two-leaf period, water surface treatment 10th day after transplantation, 1 kg active ingredient per hectare, evaluated 21st day, lower index = higher safety
# Method in brief: as §2
Compound,Herbicidal activity Glycine max (soybean (Glycine max) [1]),Herbicidal activity Triticum aestivum [2],Herbicidal activity Echinochloa spp. (Echinochloa spp.),Herbicidal activity Glycine max (soybean (Glycine max) [3]),Herbicidal activity Triticum aestivum [4],Herbicidal activity Ammannia multiflora (Ammannia multiflora),Herbicidal activity Monochoria vaginalis (Monochoria vaginalis),Herbicidal activity Scirpus juncoides (Scirpus juncoides),Herbicidal activity Stellaria media (Stellaria media [5]),Herbicidal activity Digitaria adscendens (Digitaria adscendens [6]),Herbicidal activity Chenopodium album (Chenopodium album [7]),Herbicidal activity Setaria viridis (Setaria viridis [8]),Herbicidal activity Stellaria media (Stellaria media [9]),Herbicidal activity Digitaria adscendens (Digitaria adscendens [10]),Herbicidal activity Chenopodium album (Chenopodium album [11]),Herbicidal activity Setaria viridis (Setaria viridis [12]),Herbicidal activity Oryza sativa [13]
COC=C(Cn1nc(-c2cccc(Cl)c2)c(C)c1C)C(=O)OC [Compound 34],1 (herbicidal effect of not less than 10% by weight and less than 30% by weight),1 (herbicidal effect of not less than 10% by weight and less than 30% by weight),3 (herbicidal effect of not less than 50% by weight and less than 70% by weight),0 (herbicidal effect of not less than 0% by weight and less than 10% by weight),0 (herbicidal effect of not less than 0% by weight and less than 10% by weight),3 (herbicidal effect of not less than 50% by weight and less than 70% by weight),5 (herbicidal effect of not less than 90% by weight),3 (herbicidal effect of not less than 50% by weight and less than 70% by weight),4 (herbicidal effect of not less than 70% by weight and less than 90% by weight),4 (herbicidal effect of not less than 70% by weight and less than 90% by weight),4 (herbicidal effect of not less than 70% by weight and less than 90% by weight),4 (herbicidal effect of not less than 70% by weight and less than 90% by weight),4 (herbicidal effect of not less than 70% by weight and less than 90% by weight),5 (herbicidal effect of not less than 90% by weight),5 (herbicidal effect of not less than 90% by weight),4 (herbicidal effect of not less than 70% by weight and less than 90% by weight),0 (herbicidal effect of not less than 0% by weight and less than 10% by weight)
COC=C(Cn1nc(-c2cccc(Cl)c2Cl)c(Br)c1C)C(=O)OC [Compound 29],1 (herbicidal effect of not less than 10% by weight and less than 30% by weight),1 (herbicidal effect of not less than 10% by weight and less than 30% by weight),4 (herbicidal effect of not less than 70% by weight and less than 90% by weight),0 (herbicidal effect of not less than 0% by weight and less than 10% by weight),0 (herbicidal effect of not less than 0% by weight and less than 10% by weight),5 (herbicidal effect of not less than 90% by weight),5 (herbicidal effect of not less than 90% by weight),4 (herbicidal effect of not less than 70% by weight and less than 90% by weight),4 (herbicidal effect of not less than 70% by weight and less than 90% by weight),4 (herbicidal effect of not less than 70% by weight and less than 90% by weight),4 (herbicidal effect of not less than 70% by weight and less than 90% by weight),4 (herbicidal effect of not less than 70% by weight and less than 90% by weight),5 (herbicidal effect of not less than 90% by weight),5 (herbicidal effect of not less than 90% by weight),5 (herbicidal effect of not less than 90% by weight),4 (herbicidal effect of not less than 70% by weight and less than 90% by weight),0 (herbicidal effect of not less than 0% by weight and less than 10% by weight)
COC=C(Cn1cc(C)c(-c2ccccc2)n1)C(=O)OC [Compound 13],0 (herbicidal effect of not less than 0% by weight and less than 10% by weight),0 (herbicidal effect of not less than 0% by weight and less than 10% by weight),5 (herbicidal effect of not less than 90% by weight),0 (herbicidal effect of not less than 0% by weight and less than 10% by weight),0 (herbicidal effect of not less than 0% by weight and less than 10% by weight),5 (herbicidal effect of not less than 90% by weight),5 (herbicidal effect of not less than 90% by weight),5 (herbicidal effect of not less than 90% by weight),5 (herbicidal effect of not less than 90% by weight),5 (herbicidal effect of not less than 90% by weight),5 (herbicidal effect of not less than 90% by weight),5 (herbicidal effect of not less than 90% by weight),5 (herbicidal effect of not less than 90% by weight),5 (herbicidal effect of not less than 90% by weight),5 (herbicidal effect of not less than 90% by weight),5 (herbicidal effect of not less than 90% by weight),0 (herbicidal effect of not less than 0% by weight and less than 10% by weight)
COC=C(Cn1nc(-c2ccccc2)c(C)c1C)C(=O)OC [Compound 33],0 (herbicidal effect of not less than 0% by weight and less than 10% by weight),0 (herbicidal effect of not less than 0% by weight and less than 10% by weight),5 (herbicidal effect of not less than 90% by weight),0 (herbicidal effect of not less than 0% by weight and less than 10% by weight),0 (herbicidal effect of not less than 0% by weight and less than 10% by weight),5 (herbicidal effect of not less than 90% by weight),5 (herbicidal effect of not less than 90% by weight),5 (herbicidal effect of not less than 90% by weight),4 (herbicidal effect of not less than 70% by weight and less than 90% by weight),4 (herbicidal effect of not less than 70% by weight and less than 90% by weight),4 (herbicidal effect of not less than 70% by weight and less than 90% by weight),4 (herbicidal effect of not less than 70% by weight and less than 90% by weight),5 (herbicidal effect of not less than 90% by weight),5 (herbicidal effect of not less than 90% by weight),5 (herbicidal effect of not less than 90% by weight),4 (herbicidal effect of not less than 70% by weight and less than 90% by weight),1 (herbicidal effect of not less than 10% by weight and less than 30% by weight)
COC=C(Cn1cc(C)c(-c2ccc(F)cc2)n1)C(=O)OC [Compound 14],0 (herbicidal effect of not less than 0% by weight and less than 10% by weight),0 (herbicidal effect of not less than 0% by weight and less than 10% by weight),5 (herbicidal effect of not less than 90% by weight),0 (herbicidal effect of not less than 0% by weight and less than 10% by weight),0 (herbicidal effect of not less than 0% by weight and less than 10% by weight),5 (herbicidal effect of not less than 90% by weight),5 (herbicidal effect of not less than 90% by weight),5 (herbicidal effect of not less than 90% by weight),5 (herbicidal effect of not less than 90% by weight),5 (herbicidal effect of not less than 90% by weight),5 (herbicidal effect of not less than 90% by weight),5 (herbicidal effect of not less than 90% by weight),5 (herbicidal effect of not less than 90% by weight),5 (herbicidal effect of not less than 90% by weight),5 (herbicidal effect of not less than 90% by weight),5 (herbicidal effect of not less than 90% by weight),0 (herbicidal effect of not less than 0% by weight and less than 10% by weight)

# — patent publication US6809065B2, “Herbicide containing substituted pyrazole derivative as active ingredient” (SDS Biotech K.K., priority 2001, dated 2004)
